Among the data in PubChem BioAssay AID1159565 (GlaxoSmithKline (GSK), 2015) are IC50 values, retold here.

SMILES strings stand for the structures.

The IC50 is the concentration needed to halve the response being measured.

The test system of the first assay is T. cruzi-infected H9C2 cardiomyocytes, high-content imaging. As to the kind of experiment: intracellular T. cruzi amastigote inhibition, imaging, H9C2 host cardiomyocytes, host toxicity (AID 1159565).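 Also: infected cells incubated 72 h after plating.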 As to conditions: measured here: H9C2 host cell toxicity.
Take `COc1cc(OC)cc(C(=O)N[C@@H](CC(C)C)C(=O)NC2(C#N)CC2)c1`: the IC50 is more than 50 µM. Regarding `O=C(CSc1ccc(F)cc1)N[C@@H](Cc1cnc[nH]1)C(=O)NCCc1ccccc1`, the half-inhibitory concentration (IC50) is more than 50 µM.

`NC(=O)c1ncccc1Nc1nc(NC2CCC(O)CC2)ncc1Br` (stereo unspecified) came in with an IC50 of 0.63 µM. Same read-out and setting: under `Cc1cc(-c2cccc3ccccc23)nc2nc(N)nc(N)c12` stands more than 50 µM; under `CN(CC1CCCO1)S(=O)(=O)c1ccc(C(=O)Nc2nc(-c3ccccn3)cs2)cc1` (stereo unspecified), 20 µM. Still for that read-out and setting: under `CCOc1ccc(NC(=O)c2ccc(NC(=O)NC3CCCCC3)cc2)cc1` stands more than 50 µM; under `O=C(NCCc1ccccn1)C(c1cn[nH]c1)N1CCN(c2ccc(Cl)c(Cl)c2)CC1` (stereo unspecified), more than 50 µM; under `Cc1[nH]n2c(=O)c3c(nc2c1-c1ccc(Br)cc1)CCCC3`, more than 50 µM. Still for that read-out and setting: next, `Cc1ccc(NC(=O)c2ccnc(N3CCCC3)c2)cc1-c1cc(C(N)=O)ccc1C`: more than 50 µM; `C=CCn1nc([N+](=O)[O-])nc1Oc1ccc(Cl)cc1Cl`: more than 50 µM. Molecule `Cn1ccnc1CN1CCc2[nH]cnc2C1c1ccccc1OCc1ccccc1` (stereo unspecified) returned an IC50 of more than 50 µM. The same measure, in the same setting: next, `O=C(Nc1ccc(C(F)(F)F)cc1)Nc1cccc([N+](=O)[O-])c1`: 5 µM; `O=C(Cn1cnc2cc([N+](=O)[O-])ccc2c1=O)NCCc1ccc(Cl)cc1Cl`: more than 50 µM; `CC(CCc1ccccc1)NC(=O)CN(Cc1ccccn1)Cc1ccccn1` (stereo unspecified): more than 79 µM. As to `Cc1nn(-c2nc3ccccc3s2)c2c1C(c1ccc(OCC(N)=O)cc1)SCC(=O)N2` (stereo unspecified), the IC50 is more than 50 µM. On the same count and under the same terms, next, `COc1ccc(NS(=O)(=O)c2cccc(NC(=O)c3cc(F)cc(F)c3)c2)cc1`: more than 50 µM. Take `COc1ccc(Nc2nc(-c3ccccn3)cs2)c(OC)c1`: the IC50 is 2 µM.

For `COc1ccc(CNc2nsc3ccccc23)cc1OC`, the IC50 is more than 50 µM.

As for `CC(c1ccc2c(c1)CCCC2)N(C)c1ncc2c(N)nc(N)nc2n1` (stereo unspecified), the IC50 stood at 10 µM.

Molecule `Cc1cccc(NS(=O)(=O)c2ccc3c(c2)C(=O)c2cc(S(=O)(=O)Nc4cccc(C)c4C)ccc2-3)c1C` returned an IC50 of 32 µM. Still for that read-out and setting: next, `COc1ccc(Nc2nccc(N(C)c3n[nH]c4c(F)cccc34)n2)cc1S(C)(=O)=O`: 7.9 µM; `CC(C)Oc1cccc(N2CCC(C(=O)N3CCCN(C(C)C)CC3)CC2)c1`: more than 50 µM. The same measure, in the same setting: under `O=C(CCCNC(=O)c1ccc(Cl)cc1)Nc1nc(-c2ccccn2)cs1` stands 25 µM; under `O=c1[nH]c(C=Cc2cccc(OCCOc3ccccc3)c2)nc(O)c1[N+](=O)[O-]`, more than 50 µM; under `COc1ccc(NS(=O)(=O)c2cc(-c3cc(C)[nH]n3)ccc2C)cc1OC`, more than 50 µM. The molecule `OC[C@@H](Nc1nccc(-c2c(-c3ccc(F)cc3)ncn2C2CCNCC2)n1)c1ccccc1` had an IC50 of 2 µM. On the same count and under the same terms, under `N#Cc1cccc(Cc2cc(Nc3cc(C4CC4)[nH]n3)nc(N3CC[C@H]3C(N)=O)n2)c1` stands 0.004 µM.

The same assay, now with this note: measured here: amastigotes per cell.
`O=C(Nc1cccc(S(=O)(=O)Nc2ccc(Br)cc2)c1)c1ccc([N+](=O)[O-])s1` came in with an IC50 of 0.1 µM.

In turn, `Cc1ccc(NC(C)C(=O)Nc2ccc(C#N)cc2)cc1S(=O)(=O)N1CCCCC1` (stereo unspecified) showed an IC50 of 7.9 µM. Still for that read-out and setting: next, `Cc1cccnc1NC(=O)c1cccc(OCc2c(C)noc2C)c1`: 40 µM; `O=C(Nc1cccc(F)c1)N1CCC(Oc2cccc(-c3cccnc3)c2)CC1`: 0.5 µM.

Turning to `O=C(Nc1cccc(Cl)c1)N1CCCCC1c1cccnc1` (stereo unspecified), the IC50 was found to be 0.2 µM. With `O=C(NCC1CCCCN1C(=O)c1cccc2ccccc12)c1ccccc1` (stereo unspecified), the IC50 was found to be 3.2 µM. `NC(=O)c1cc(F)ccc1Nc1nc(NC2CCC(O)CC2)ncc1Cl` (stereo unspecified) returned an IC50 of 1.6 µM. On the same count and under the same terms, next, `CNc1cncc(C2CCCN2C(=O)Cc2coc3cc(C)ccc23)n1` (stereo unspecified): 0.2 µM; `CCN(CC)S(=O)(=O)c1ccc(Cn2nc(C(=O)Nc3ccncn3)c3ccccc32)cc1`: 0.4 µM; `COc1ccc(C(=O)NC2CCN(CCn3c(=O)ccc4ncc(F)cc43)CC2)cc1Cl`: 0.32 µM. The same measure, in the same setting: under `NCc1ccc2c(Cl)cc(Cl)c(O)c2n1` stands 1.3 µM. As to `Cc1ccccc1NS(=O)(=O)c1ccc2[nH]cc(C(=O)NC3CCCC(C)C3C)c(=O)c2c1` (stereo unspecified), the half-maximal inhibitory concentration (IC50) is 3.2 µM. On the same count and under the same terms, under `CN1CCN(c2nc(-c3ccc(Cl)cc3)c3c(N)n(C)nc3n2)CC1` stands 0.79 µM; under `NC(=O)c1ncc(N[C@@H]2CCCNC2)nc1Nc1cccc(Cl)c1`, 0.25 µM; under `CS(=O)(=O)c1ccc(Nc2nccc(-c3cnn4ncccc34)n2)cc1`, 1 µM. The same measure, in the same setting: next, `CCN(CC)S(=O)(=O)c1ccc(C(=O)Nc2cc(C)nn2-c2nc(C)c(C)c(=O)[nH]2)cc1`: 0.32 µM; `CCOc1ccccc1C(=O)Nc1nnc(-c2ccc3c(c2)OCO3)s1`: 0.063 µM; `CC1(C)CCC(=Cc2ccc(Cl)cc2)CC1(O)Cn1ccnc1` (stereo unspecified): 0.005 µM. Still for that read-out and setting: under `CC(C)COC(=O)Nc1ccc(N2CCC(CNS(=O)(=O)c3ccccc3)CC2)c(F)c1` stands 7.9 µM; under `CCN(Cc1ccncc1)Cc1ccc(NC(=O)c2cc(-c3ccc(F)cc3)n[nH]2)cc1`, 0.25 µM; under `COCCn1c(-c2ccccc2)cnc1NCc1ccccc1OC`, 6.3 µM.

In turn, `O=S(=O)(c1cccc(CSc2nnc(-c3ccc4c(c3)OCO4)o2)c1)N1CCOCC1` had an IC50 of 0.04 µM. Same read-out and setting: under `CCCCn1c(=O)c2c(N)onc2n(CCCC)c1=O` stands 25 µM; under `CN(C)c1ccc(N)cc1CN(CC1CCCO1)S(C)(=O)=O` (stereo unspecified), more than 50 µM. The molecule `COc1ccc2nccc([C@H](O)CN3CC[C@H](NC(=O)c4ccc(Br)cc4)[C@@H](O)C3)c2n1` had an IC50 of 0.16 µM. On the same count and under the same terms, next, `COc1cccc(-c2cc(C(F)(F)F)nc(-n3ccc([N+](=O)[O-])n3)n2)c1`: 0.2 µM; `O=C(NCc1ccc(Cl)cc1)C1CN(C(=O)c2ccc(F)cc2)CCS1` (stereo unspecified): 32 µM; `COc1cc(OC)cc(C(=O)N[C@@H](CC(C)C)C(=O)NC2(C#N)CC2)c1`: more than 50 µM. On the same count and under the same terms, next, `O=C(CSc1ccc(F)cc1)N[C@@H](Cc1cnc[nH]1)C(=O)NCCc1ccccc1`: 0.5 µM.

Take `NC(=O)c1ncccc1Nc1nc(NC2CCC(O)CC2)ncc1Br` (stereo unspecified): the IC50 was 0.5 µM.

`Cc1cc(-c2cccc3ccccc23)nc2nc(N)nc(N)c12` came in with an IC50 of 32 µM. On the same count and under the same terms, next, `CN(CC1CCCO1)S(=O)(=O)c1ccc(C(=O)Nc2nc(-c3ccccn3)cs2)cc1` (stereo unspecified): 1.3 µM; `CCOc1ccc(NC(=O)c2ccc(NC(=O)NC3CCCCC3)cc2)cc1`: more than 50 µM; `O=C(NCCc1ccccn1)C(c1cn[nH]c1)N1CCN(c2ccc(Cl)c(Cl)c2)CC1` (stereo unspecified): 0.13 µM. On the same count and under the same terms, under `Cc1[nH]n2c(=O)c3c(nc2c1-c1ccc(Br)cc1)CCCC3` stands 0.79 µM. On the same count and under the same terms, next, `Cc1ccc(NC(=O)c2ccnc(N3CCCC3)c2)cc1-c1cc(C(N)=O)ccc1C`: 3.2 µM. As for `C=CCn1nc([N+](=O)[O-])nc1Oc1ccc(Cl)cc1Cl`, the IC50 was 0.13 µM. Same read-out and setting: next, `Cn1ccnc1CN1CCc2[nH]cnc2C1c1ccccc1OCc1ccccc1` (stereo unspecified): more than 50 µM.

`O=C(Nc1ccc(C(F)(F)F)cc1)Nc1cccc([N+](=O)[O-])c1` returned an IC50 of 0.79 µM.

As for `O=C(Cn1cnc2cc([N+](=O)[O-])ccc2c1=O)NCCc1ccc(Cl)cc1Cl`, the IC50 worked out at 0.2 µM. In turn, `CC(CCc1ccccc1)NC(=O)CN(Cc1ccccn1)Cc1ccccn1` (stereo unspecified) registered an IC50 of 3.2 µM. Still for that read-out and setting: next, `Cc1nn(-c2nc3ccccc3s2)c2c1C(c1ccc(OCC(N)=O)cc1)SCC(=O)N2` (stereo unspecified): more than 50 µM.

The molecule `COc1ccc(NS(=O)(=O)c2cccc(NC(=O)c3cc(F)cc(F)c3)c2)cc1` displayed an IC50 of 0.5 µM. The same measure, in the same setting: next, `COc1ccc(Nc2nc(-c3ccccn3)cs2)c(OC)c1`: 5 µM; `COc1ccc(CNc2nsc3ccccc23)cc1OC`: 20 µM. `CC(c1ccc2c(c1)CCCC2)N(C)c1ncc2c(N)nc(N)nc2n1` (stereo unspecified) came in with a half-inhibitory concentration (IC50) of 0.01 µM. Still for that read-out and setting: under `Cc1cccc(NS(=O)(=O)c2ccc3c(c2)C(=O)c2cc(S(=O)(=O)Nc4cccc(C)c4C)ccc2-3)c1C` stands 0.4 µM; under `COc1ccc(Nc2nccc(N(C)c3n[nH]c4c(F)cccc34)n2)cc1S(C)(=O)=O`, 2 µM; under `CC(C)Oc1cccc(N2CCC(C(=O)N3CCCN(C(C)C)CC3)CC2)c1`, 0.25 µM. Still for that read-out and setting: under `O=C(CCCNC(=O)c1ccc(Cl)cc1)Nc1nc(-c2ccccn2)cs1` stands 10 µM. Same read-out and setting: under `O=c1[nH]c(C=Cc2cccc(OCCOc3ccccc3)c2)nc(O)c1[N+](=O)[O-]` stands 0.16 µM. `COc1ccc(NS(=O)(=O)c2cc(-c3cc(C)[nH]n3)ccc2C)cc1OC`: the 50% inhibitory concentration (IC50) is 1.3 µM. Compared with the last molecule, the IC50 is about 8.1-fold higher. `OC[C@@H](Nc1nccc(-c2c(-c3ccc(F)cc3)ncn2C2CCNCC2)n1)c1ccccc1`: the IC50 came out at 13 µM. Same read-out and setting: next, `N#Cc1cccc(Cc2cc(Nc3cc(C4CC4)[nH]n3)nc(N3CC[C@H]3C(N)=O)n2)c1`: 1 µM.
